Measured values reported in patent US20230233569A1 (Revolution Medicines, Inc., priority 2020, published 2023).
pIC50: −log10 of the molar value. Like-named read-outs stand apart in the source and are kept apart here.

Tests used:
Experiment in all cases: Ras-Raf disruption / FRET / MOA assay (BRAF RBD)
Format in all cases: biochemical
[1] = target: KRAS G12C (Homo sapiens, UniProt P01116+P62937, G12C); settings: with Cyclophilin A
How it was run: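 His6-K-Ras G12C-GMPPNP (12.5 nM), GST-BRAF RBD (50 nM) and tagless Cyclophilin A (25 μM) incubated 3 h at 25 °C with compound (10-point 3-fold series from 30 μM), pH 7.3 HEPES buffer. Anti-His Eu/anti-GST APC added for 1.5 h; decreased TR-FRET ratio vs DMSO gives IC50.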

[2] = target: NRAS G12C (Homo sapiens, UniProt P01111+P62937, G12C)
Sequence of NRAS G12C (P01111 whole entry G12C): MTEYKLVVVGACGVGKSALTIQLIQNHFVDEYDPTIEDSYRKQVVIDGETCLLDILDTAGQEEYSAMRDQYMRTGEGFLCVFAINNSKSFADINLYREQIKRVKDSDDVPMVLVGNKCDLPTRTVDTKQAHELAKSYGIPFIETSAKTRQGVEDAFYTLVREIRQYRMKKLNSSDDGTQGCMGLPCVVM
Sequence of NRAS G12C (P62937 whole entry): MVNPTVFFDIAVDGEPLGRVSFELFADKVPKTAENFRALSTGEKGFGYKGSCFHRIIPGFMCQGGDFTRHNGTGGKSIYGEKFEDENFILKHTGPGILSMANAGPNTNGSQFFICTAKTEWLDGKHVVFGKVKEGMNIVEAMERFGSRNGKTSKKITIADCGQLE
How it was run: (§1)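 TR-FRET in 25 mM HEPES pH 7.3, 100 mM NaCl, 5 mM MgCl2, 0.1% BSA, 0.002% Tween20 with 25 μM Cyclophilin A, 12.5 nM His6-Ras-GMPPNP, 50 nM GST-BRAF RBD; compound 10-point 3-fold series from 30 μM. After 3 h at 25 °C, Eu anti-His/APC anti-GST added for 1.5 h; IC50 from ratio decrease versus DMSO.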

[3] = target: KRAS G12S (Homo sapiens, UniProt P01116+P62937, G12S); settings: with Cyclophilin A
Sequence of KRAS G12S (P01116 1-169 isoform P01116-2 G12S limits assumed): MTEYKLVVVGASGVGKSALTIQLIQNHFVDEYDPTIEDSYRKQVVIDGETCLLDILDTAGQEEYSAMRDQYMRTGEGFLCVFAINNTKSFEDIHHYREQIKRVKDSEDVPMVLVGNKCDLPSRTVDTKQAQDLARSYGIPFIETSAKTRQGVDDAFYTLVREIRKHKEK
Sequence of KRAS G12S (P62937 whole entry): as the sequence (P62937 whole entry) above
How it was run: as §1

[4] = target: KRAS G13C (Homo sapiens, UniProt P01116+P62937, G13C); settings: with Cyclophilin A
Sequence of KRAS G13C (P01116 1-169 isoform P01116-2 G13C limits assumed): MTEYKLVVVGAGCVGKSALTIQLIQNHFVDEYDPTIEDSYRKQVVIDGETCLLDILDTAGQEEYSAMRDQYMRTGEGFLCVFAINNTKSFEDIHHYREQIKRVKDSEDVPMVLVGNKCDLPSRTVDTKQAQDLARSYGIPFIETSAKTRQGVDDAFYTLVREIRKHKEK
Sequence of KRAS G13C (P62937 whole entry): as the sequence (P62937 whole entry) above
How it was run: as §1

[5] = target: KRAS WT (Homo sapiens, UniProt P01116+P62937); settings: with Cyclophilin A
Sequence of KRAS WT (P01116 1-169 isoform P01116-2 limits assumed): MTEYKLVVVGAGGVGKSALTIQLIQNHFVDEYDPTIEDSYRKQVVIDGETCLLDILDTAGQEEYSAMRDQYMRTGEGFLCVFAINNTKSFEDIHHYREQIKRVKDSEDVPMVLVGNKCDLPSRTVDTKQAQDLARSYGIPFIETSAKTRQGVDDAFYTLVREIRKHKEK
Sequence of KRAS WT (P62937 whole entry): as the sequence (P62937 whole entry) above
How it was run: as §1

[6] = target: KRAS G13D (Homo sapiens, UniProt P01116+P62937, G13D); settings: with Cyclophilin A
Sequence of KRAS G13D (P01116 1-169 isoform P01116-2 G13D limits assumed): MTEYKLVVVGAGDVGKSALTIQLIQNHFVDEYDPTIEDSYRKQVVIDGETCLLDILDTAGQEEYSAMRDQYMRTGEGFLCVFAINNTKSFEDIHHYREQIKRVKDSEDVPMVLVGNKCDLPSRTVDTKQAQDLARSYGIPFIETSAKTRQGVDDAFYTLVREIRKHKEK
Sequence of KRAS G13D (P62937 whole entry): as the sequence (P62937 whole entry) above
How it was run: as §1

[7] = target: KRAS G12V (Homo sapiens, UniProt P01116+P62937, G12V); settings: with Cyclophilin A
Sequence of KRAS G12V (P01116 1-169 isoform P01116-2 G12V limits assumed): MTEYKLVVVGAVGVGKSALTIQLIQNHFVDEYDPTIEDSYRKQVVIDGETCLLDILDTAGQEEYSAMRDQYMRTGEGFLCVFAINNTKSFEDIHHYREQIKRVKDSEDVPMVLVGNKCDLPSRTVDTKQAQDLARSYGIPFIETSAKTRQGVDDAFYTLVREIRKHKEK
Sequence of KRAS G12V (P62937 whole entry): as the sequence (P62937 whole entry) above
How it was run: as §1

[8] = target: KRAS G12D (Homo sapiens, UniProt P01116+P62937, G12D); settings: with Cyclophilin A
Sequence of KRAS G12D (P01116 1-169 isoform P01116-2 G12D limits assumed): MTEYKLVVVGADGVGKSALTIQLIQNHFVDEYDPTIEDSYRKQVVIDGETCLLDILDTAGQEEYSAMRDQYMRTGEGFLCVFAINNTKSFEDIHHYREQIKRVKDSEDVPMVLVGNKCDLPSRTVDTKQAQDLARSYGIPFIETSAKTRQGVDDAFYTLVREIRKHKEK
Sequence of KRAS G12D (P62937 whole entry): as the sequence (P62937 whole entry) above
How it was run: as §1

[9] = KRAS G12C FRET data IC50, Ras-Raf disruption
[10] = NRAS G12C FRET data IC50, NRAS G12C
[11] = KRAS G12S FRET data IC50, Ras-Raf disruption
[12] = KRAS G13C FRET data IC50, Ras-Raf disruption
[13] = KRAS WT FRET data IC50, Ras-Raf disruption
[14] = KRAS G13D FRET data IC50, Ras-Raf disruption
[15] = KRAS G12V FRET data IC50, Ras-Raf disruption
[16] = KRAS G12D FRET data IC50, Ras-Raf disruption
[17] = Ras-Raf disruption, read-out: KRAS G12C FRET data IC50
[18] = NRAS G12C, read-out: NRAS G12C FRET data IC50
[19] = Ras-Raf disruption, read-out: KRAS G12S FRET data IC50
[20] = Ras-Raf disruption, read-out: KRAS G13C FRET data IC50
[21] = Ras-Raf disruption, read-out: KRAS WT FRET data IC50
[22] = Ras-Raf disruption, read-out: KRAS G13D FRET data IC50
[23] = Ras-Raf disruption, read-out: KRAS G12V FRET data IC50
[24] = Ras-Raf disruption, read-out: KRAS G12D FRET data IC50

Sequence of KRAS G12C (P01116 1-169 isoform P01116-2 G12C limits assumed): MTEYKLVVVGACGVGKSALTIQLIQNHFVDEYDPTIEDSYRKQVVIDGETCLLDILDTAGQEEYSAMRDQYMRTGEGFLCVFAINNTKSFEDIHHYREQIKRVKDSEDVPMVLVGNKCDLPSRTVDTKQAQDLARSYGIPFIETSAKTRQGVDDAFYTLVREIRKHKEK
Sequence of KRAS G12C (P62937 whole entry): as the sequence (P62937 whole entry) above

Row | SMILES | pIC50 [1, 9] | pIC50 [2, 10] | pIC50 [3, 11] | pIC50 [4, 12] | pIC50 [5, 13] | pIC50 [6, 14] | pIC50 [7, 15] | pIC50 [8, 16] | pIC50 [1, 17] | pIC50 [2, 18] | pIC50 [3, 19] | pIC50 [4, 20] | pIC50 [5, 21] | pIC50 [6, 22] | pIC50 [7, 23] | pIC50 [8, 24]
1 | CCn1c(-c2cccnc2[C@H](C)OC)c2c3cc(ccc31)-c1cc(O)cc(c1)C[C@H](NC(=O)[C@H](C(C)C)N1CC[C@@H](NC(=O)[C@@H]3CN3)C1=O)C(=O)N1CCC[C@H](N1)C(=O)OCC(C)(C)C2 [Example 129] | 7.00 to 8.00 | 7.00 to 8.00 | 7.00 to 8.00 | > 8.00 | 7.00 to 8.00 | 7.00 to 8.00 | 6.00 to 7.00 | 6.00 to 7.00 | – | – | – | – | – | – | – | –
2 | CCn1c(-c2cccnc2[C@H](C)OC)c2c3cc(ccc31)-c1cc(O)cc(c1)C[C@H](NC(=O)[C@H](C(C)C)N1CC[C@@H](NC(=O)[C@H]3CN3)C1=O)C(=O)N1CCC[C@H](N1)C(=O)OCC(C)(C)C2 [Example 130] | 7.00 to 8.00 | 7.00 to 8.00 | 7.00 to 8.00 | 7.00 to 8.00 | 7.00 to 8.00 | 7.00 to 8.00 | 6.00 to 7.00 | 6.00 to 7.00 | – | – | – | – | – | – | – | –
3 | CCn1c(-c2cccnc2[C@H](C)OC)c2c3cc(ccc31)-c1cc(O)cc(c1)C[C@H](NC(=O)[C@H](C(C)C)N(C)C(=O)c1ccc([C@@H]3CN3)cc1)C(=O)N1CCC[C@H](N1)C(=O)OCC(C)(C)C2 [Example 131] | – | – | – | – | – | – | – | – | 7.00 to 8.00 | 7.00 to 8.00 | 6.00 to 7.00 | 7.00 to 8.00 | 6.00 to 7.00 | 6.00 to 7.00 | 6.00 to 7.00 | 6.00 to 7.00
4 | CCn1c(-c2cccnc2[C@H](C)OC)c2c3cc(ccc31)-c1csc(n1)C[C@H](NC(=O)[C@H](C1CCCC1)N(C)C(=O)CN(C)C(=O)[C@H]1CN1)C(=O)N1CCC[C@H](N1)C(=O)OCC(C)(C)C2 [Example 132] | 6.00 to 7.00 | 6.00 to 7.00 | 5.00 to 6.00 | 5.00 to 6.00 | 5.00 to 6.00 | 5.00 to 6.00 | 5.00 to 6.00 | 5.00 to 6.00 | – | – | – | – | – | – | – | –
5 | CCn1c(-c2cccnc2[C@H](C)OC)c2c3cc(ccc31)-c1cc(O)cc(c1)C[C@H](NC(=O)[C@H](C(C)C)N1CC[C@@]3(CCN(C[C@@H]4CN4)C3)C1=O)C(=O)N1CCC[C@H](N1)C(=O)OCC(C)(C)C2 [Example 138] | – | – | – | – | – | – | – | – | 7.00 to 8.00 | > 8.00 | 6.00 to 7.00 | 7.00 to 8.00 | 7.00 to 8.00 | 7.00 to 8.00 | 5.00 to 6.00 | 6.00 to 7.00
6 | CCn1c(-c2cccnc2[C@H](C)OC)c2c3cc(ccc31)-c1cc(O)cc(c1)C[C@H](NC(=O)[C@H](C(C)C)N(C)C(=O)N1CCN(C(=O)[C@H]3CN3)C(=O)C1)C(=O)N1CCC[C@H](N1)C(=O)OCC(C)(C)C2 [Example 143] | – | – | – | – | – | – | – | – | 7.00 to 8.00 | 7.00 to 8.00 | 7.00 to 8.00 | 7.00 to 8.00 | 7.00 to 8.00 | 7.00 to 8.00 | 6.00 to 7.00 | 6.00 to 7.00
7 | CCn1c(-c2cccnc2[C@H](C)OC)c2c3cc(ccc31)-c1cc(O)cc(c1)C[C@H](NC(=O)[C@H](C(C)C)N(C)C(=O)c1ccc([C@H]3CN3)cc1)C(=O)N1CCC[C@H](N1)C(=O)OCC(C)(C)C2 [Example 145] | – | – | – | – | – | – | – | – | 6.00 to 7.00 | 6.00 to 7.00 | 6.00 to 7.00 | 7.00 to 8.00 | 6.00 to 7.00 | 6.00 to 7.00 | 6.00 to 7.00 | 5.00 to 6.00
8 | CCn1c(-c2cccnc2[C@H](C)OC)c2c3cc(ccc31)-c1cc(O)cc(c1)C[C@H](NC(=O)[C@H](C(C)C)N1CC[C@]3(CCN(C(=O)[C@H]4CN4)C3)C1=O)C(=O)N1CCC[C@H](N1)C(=O)OCC(C)(C)C2 [Example 146] | – | – | – | – | – | – | – | – | > 8.00 | > 8.00 | 7.00 to 8.00 | 7.00 to 8.00 | 7.00 to 8.00 | 6.00 to 7.00 | 7.00 to 8.00 | 7.00 to 8.00
9 | CCn1c(-c2cccnc2[C@H](C)OC)c2c3cc(ccc31)-c1cc(O)cc(c1)C[C@H](NC(=O)[C@H](C(C)C)N1CC[C@@]3(CCN(C(=O)[C@H]4CN4)C3)C1=O)C(=O)N1CCC[C@H](N1)C(=O)OCC(C)(C)C2 [Example 149] | – | – | – | – | – | – | – | – | > 8.00 | > 8.00 | 7.00 to 8.00 | 7.00 to 8.00 | 7.00 to 8.00 | 7.00 to 8.00 | 7.00 to 8.00 | 6.00 to 7.00
10 | CCn1c(-c2cccnc2[C@H](C)OC)c2c3cc(ccc31)-c1cc(O)cc(c1)C[C@H](NC(=O)[C@H](C(C)C)N(C)C(=O)[C@H]1CCN1C(=O)[C@@H]1CN1)C(=O)N1CCC[C@H](N1)C(=O)OCC(C)(C)C2 [Example 157] | 7.00 to 8.00 | 7.00 to 8.00 | 7.00 to 8.00 | 7.00 to 8.00 | 7.00 to 8.00 | 7.00 to 8.00 | 7.00 to 8.00 | 6.00 to 7.00 | – | – | – | – | – | – | – | –
11 | CCn1c(-c2cccnc2[C@H](C)OC)c2c3cc(ccc31)-c1cc(O)cc(c1)C[C@H](NC(=O)[C@H](C(C)C)N(C)C(=O)[C@H]1CCN1C(=O)[C@H]1CN1)C(=O)N1CCC[C@H](N1)C(=O)OCC(C)(C)C2 [Example 158] | 7.00 to 8.00 | 7.00 to 8.00 | 7.00 to 8.00 | 7.00 to 8.00 | 7.00 to 8.00 | 7.00 to 8.00 | 7.00 to 8.00 | 6.00 to 7.00 | – | – | – | – | – | – | – | –
12 | CCn1c(-c2cccnc2[C@H](C)OC)c2c3cc(ccc31)-c1csc(n1)C[C@H](NC(=O)[C@H](C(C)C)N(C)C(=O)N1CCN(C(=O)[C@@H]3CN3)CC1)C(=O)N1CCC[C@H](N1)C(=O)OCC(C)(C)C2 [Example 168] | – | – | – | – | – | – | – | – | 7.00 to 8.00 | 7.00 to 8.00 | 7.00 to 8.00 | 6.00 to 7.00 | 7.00 to 8.00 | 6.00 to 7.00 | 6.00 to 7.00 | 6.00 to 7.00
13 | CCn1c(-c2cccnc2[C@H](C)OC)c2c3cc(ccc31)-c1csc(n1)C[C@H](NC(=O)[C@H](C(C)C)N(C)C(=O)N1CCN(C(=O)[C@H]3CN3)CC1)C(=O)N1CCC[C@H](N1)C(=O)OCC(C)(C)C2 [Example 169] | – | – | – | – | – | – | – | – | 7.00 to 8.00 | 7.00 to 8.00 | 7.00 to 8.00 | 7.00 to 8.00 | 7.00 to 8.00 | 6.00 to 7.00 | 6.00 to 7.00 | 6.00 to 7.00
14 | CCn1c(-c2cccnc2[C@H](C)OC)c2c3cc(ccc31)-c1cc(O)cc(c1)C[C@H](NC(=O)[C@H](C(C)C)N(C)C(=O)[C@@]1(F)CCN(C(=O)[C@H]3CN3)C1)C(=O)N1CCC[C@H](N1)C(=O)OCC(C)(C)C2 [Example 171] | – | – | – | – | – | – | – | – | > 8.00 | > 8.00 | 7.00 to 8.00 | 7.00 to 8.00 | 7.00 to 8.00 | 7.00 to 8.00 | 7.00 to 8.00 | 7.00 to 8.00
15 | CCn1c(-c2cccnc2[C@H](C)OC)c2c3cc(ccc31)-c1cc(O)cc(c1)C[C@H](NC(=O)[C@H](C(C)C)N(C)C(=O)[C@@H]1CCN(C(=O)[C@@H]3CN3)C1)C(=O)N1CCC[C@H](N1)C(=O)OCC(C)(C)C2 [Example 172] | – | – | – | – | – | – | – | – | 7.00 to 8.00 | 7.00 to 8.00 | 7.00 to 8.00 | 7.00 to 8.00 | 7.00 to 8.00 | 7.00 to 8.00 | 7.00 to 8.00 | 6.00 to 7.00
16 | CCn1c(-c2cccnc2[C@H](C)OC)c2c3cc(ccc31)-c1cc(O)cc(c1)C[C@H](NC(=O)[C@H](C(C)C)N(C)C(=O)N1CCCN(C(=O)[C@@H]3CN3)CC1)C(=O)N1CCC[C@H](N1)C(=O)OCC(C)(C)C2 [Example 173] | – | – | – | – | – | – | – | – | 7.00 to 8.00 | 7.00 to 8.00 | 7.00 to 8.00 | 7.00 to 8.00 | 7.00 to 8.00 | 7.00 to 8.00 | 7.00 to 8.00 | 7.00 to 8.00
17 | CCn1c(-c2cccnc2[C@H](C)OC)c2c3cc(ccc31)-c1cc(O)cc(c1)C[C@H](NC(=O)[C@H](C1CCCC1)N1CC[C@@]3(CCN(C(=O)[C@H]4CN4)C3)C1=O)C(=O)N1CCC[C@H](N1)C(=O)OCC(C)(C)C2 [Example 174] | – | – | – | – | – | – | – | – | > 8.00 | > 8.00 | 7.00 to 8.00 | 7.00 to 8.00 | 7.00 to 8.00 | 7.00 to 8.00 | 7.00 to 8.00 | 6.00 to 7.00
